Experimental data taken from patent publication US10562891B2, “Quinazolinones as PARP14 inhibitors” (Ribon Therapeutics Inc., priority 2017, dated 2020).
Structures can show the parent of a compound that is named as a salt.

Target: catalytic domain of human PARP14 (Homo sapiens (Human), UniProt Q460N5)
Assay: Enzymatic assay for inhibition of PARP14 (DELFIA, auto-modification with biotin-NAD)
Assay type: biochemical
Details: auto-modification of PARP14 by biotin-NAD, 50 nM PARP14, 3 μM biotin-NAD
Method in brief: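 His-TEV-tagged PARP14 catalytic domain (50 nM) preincubated with compound 30 min at 25 °C, then auto-modified with 3 μM biotin-NAD for 3 h at 25 °C in HEPES pH 8 buffer with DTT. IC50 from 4-parameter fit, rucaparib and DMSO as controls.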

Chain of catalytic domain of human PARP14 (Q460N5 1611-1801): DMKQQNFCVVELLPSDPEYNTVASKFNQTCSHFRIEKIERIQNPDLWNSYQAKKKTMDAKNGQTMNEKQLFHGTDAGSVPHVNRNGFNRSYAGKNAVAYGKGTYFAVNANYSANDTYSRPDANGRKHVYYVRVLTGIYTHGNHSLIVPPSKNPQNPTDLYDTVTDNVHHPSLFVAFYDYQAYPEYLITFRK

Structure (SMILES)	IC50
O=c1[nH]c(CSC2CCOCC2)nc2cc(Nc3ccncc3)ccc12 [Example 86, 7-(Pyridin-4-ylamino)-2-(((tetrahydro-2H-pyran-4-yl)thio)methyl)quinazolin-4(3H)-one]	1000 to 10000 nM
O=c1[nH]c(CSC2CCOCC2)nc2cc(Nc3cncnc3)ccc12 [Example 87, 7-(Pyrimidin-5-ylamino)-2-(((tetrahydro-2H-pyran-4-yl)thio)methyl)quinazolin-4(3H)-one]	1000 to 10000 nM
Cn1ccnc1Nc1ccc2c(=O)[nH]c(CSC3CCOCC3)nc2c1 [Example 88, 7-((1-Methyl-1H-imidazol-2-yl)amino)-2-(((tetrahydro-2H-pyran-4-yl)thio)methyl)quinazolin-4(3H)-one]	> 10000 nM
O=c1[nH]c(CSC2CCOCC2)nc2cc(Nc3nccs3)ccc12 [Example 89, 2-(((Tetrahydro-2H-pyran-4-yl)thio)methyl)-7-(thiazol-2-ylamino)quinazolin-4(3H)-one]	1000 to 10000 nM
Cc1ncccc1Nc1ccc2c(=O)[nH]c(CSC3CCOCC3)nc2c1 [Example 90, 7-((2-Methylpyridin-3-yl)amino)-2-(((tetrahydro-2H-pyran-4-yl)thio)methyl)quinazolin-4(3H)-one]	1000 to 10000 nM
Nc1cnn(-c2ccc3c(=O)[nH]c(CSC4CCOCC4)nc3c2)c1 [Example 93, 7-(4-Amino-1H-pyrazol-1-yl)-2-(((tetrahydro-2H-pyran-4-yl)thio)methyl) quinazolin-4(3H)-one Trifluoroacetate]	> 10000 nM
Cc1c(Nc2ccccc2)ccc2c(=O)[nH]c(CSC3CCOCC3)nc12 [Example 95, 8-Methyl-7-(phenylamino)-2-(((tetrahydro-2H-pyran-4-yl)thio)methyl) quinazolin-4(3H)-one]	1000 to 10000 nM
O=c1[nH]c(CS[C@H]2CC[C@H](O)CC2)nc2cc(Nc3ccccc3)ccc12 [Example 98, 2-(((trans-4-Hydroxycyclohexyl)thio)methyl)-7-(phenylamino)quinazolin-4(3H)-one]	< 1000 nM
O=c1[nH]c(CS[C@H]2CC[C@@H](O)CC2)nc2cc(Nc3ccccc3)ccc12 [Example 99, 2-(((cis-4-Hydroxycyclohexyl)thio)methyl)-7-(phenylamino)quinazolin-4(3H)-one]	1000 to 10000 nM
O=c1[nH]c(CS[C@H]2CC[C@@H](O)CC2)nc2cc(Nc3cccnc3)ccc12 [Example 100, 2-(((cis-4-Hydroxycyclohexyl)thio)methyl)-7-(pyridin-3-ylamino)quinazolin-4(3H)-one]	< 1000 nM
O=c1[nH]c(CS[C@H]2CC[C@H](O)CC2)nc2cc(NC3CCCC3)ccc12 [Example 102, 7-(Cyclopentylamino)-2-(((trans-4-hydroxycyclohexyl)thio)methyl) quinazolin-4(3H)-one]	< 1000 nM
O=c1[nH]c(CS[C@H]2CC[C@@H](O)CC2)nc2cc(NC3CCCC3)ccc12 [Example 103, 7-(Cyclopentylamino)-2-(((cis-4-hydroxycyclohexyl)thio)methyl) quinazolin-4(3H)-one]	< 1000 nM
O=c1[nH]c(CS[C@H]2CC[C@H](CO)CC2)nc2cc(Nc3ccccc3)ccc12 [Example 104, 2-(((trans-4-(Hydroxymethyl)cyclohexyl)thio)methyl)-7-(phenylamino) quinazolin-4(3H)-one]	1000 to 10000 nM
O=c1[nH]c(CS[C@H]2CC[C@@H](CO)CC2)nc2cc(Nc3ccccc3)ccc12 [Example 105, 2-(((cis-4-(Hydroxymethyl)cyclohexyl)thio)methyl)-7-(phenylamino) quinazolin-4(3H)-one]	< 1000 nM
O=c1[nH]c(CS[C@H]2CC[C@H](CO)CC2)nc2cc(Nc3cccnc3)ccc12 [Example 107, 2-(((trans-4-(Hydroxymethyl)cyclohexyl)thio)methyl)-7-(pyridin-3-ylamino) quinazolin-4(3H)-one]	< 1000 nM
O=c1[nH]c(CSC2CCOCC2)nc2cc(NC3CCCCC3)ccc12 [Example 108, 7-(Cyclohexylamino)-2-(((tetrahydro-2H-pyran-4-yl)thio)methyl)quinazolin-4(3H)-one]	< 1000 nM
O=c1[nH]c(CSC2CCOCC2)nc2cc(NC3CCOCC3)ccc12 [Example 114, 7-((Tetrahydro-2H-pyran-4-yl)amino)-2-(((tetrahydro-2H-pyran-4-yl)thio)methyl)quinazolin-4(3H)-one]	1000 to 10000 nM
O=c1[nH]c(CSC2CCOCC2)nc2cc(NC3CCCC3)ccc12 [Example 115, 7-(Cyclopentylamino)-2-(((tetrahydro-2H-pyran-4-yl)thio)methyl)quinazolin-4(3H)-one]	< 1000 nM
CC(C)Nc1ccc2c(=O)[nH]c(CSC3CCOCC3)nc2c1 [Example 116, 7-(Isopropylamino)-2-(((tetrahydro-2H-pyran-4-yl)thio)methyl)quinazolin-4(3H)-one]	< 1000 nM
O=c1[nH]c(CSC2CCOCC2)nc2cc(NCc3ccncc3)ccc12 [Example 117, 7-((Pyridin-4-ylmethyl)amino)-2-(((tetrahydro-2H-pyran-4-yl)thio)methyl)quinazolin-4(3H)-one]	1000 to 10000 nM
O=c1[nH]c(CSC2CCOCC2)nc2cc(NC3CCC3)ccc12 [Example 122, 7-(Cyclobutylamino)-2-(((tetrahydro-2H-pyran-4-yl)thio)methyl)quinazolin-4(3H)-one]	< 1000 nM

Next, values leading:

IC50	Structure (SMILES)
1000 to 10000 nM	COc1cccc(Nc2ccc3c(=O)[nH]c(CSC4CCOCC4)nc3c2)c1 [Example 83, 7-((3-Methoxyphenyl)amino)-2-(((tetrahydro-2H-pyran-4-yl)thio)methyl)quinazolin-4(3H)-one]
1000 to 10000 nM	COc1ccccc1Nc1ccc2c(=O)[nH]c(CSC3CCOCC3)nc2c1 [Example 84, 7-((2-Methoxyphenyl)amino)-2-(((tetrahydro-2H-pyran-4-yl)thio)methyl)quinazolin-4(3H)-one]
1000 to 10000 nM	O=c1[nH]c(CSC2CCOCC2)nc2cc(Nc3cnccn3)ccc12 [Example 85, 7-(Pyrazin-2-ylamino)-2-(((tetrahydro-2H-pyran-4-yl)thio)methyl)quinazolin-4(3H)-one]
1000 to 10000 nM	Cc1ccncc1Nc1ccc2c(=O)[nH]c(CSC3CCOCC3)nc2c1 [Example 91, 7-((4-Methylpyridin-3-yl)amino)-2-(((tetrahydro-2H-pyran-4-yl)thio)methyl)quinazolin-4(3H)-one]
1000 to 10000 nM	Cc1cncc(Nc2ccc3c(=O)[nH]c(CSC4CCOCC4)nc3c2)c1 [Example 92, 7-((5-Methylpyridin-3-yl)amino)-2-(((tetrahydro-2H-pyran-4-yl)thio)methyl)quinazolin-4(3H)-one]
< 1000 nM	O=c1[nH]c(CSC2CCOCC2)nc2cc(Nc3ccon3)ccc12 [Example 94, 7-(Isoxazol-3-ylamino)-2-(((tetrahydro-2H-pyran-4-yl)thio)methyl)quinazolin-4(3H)-one]
1000 to 10000 nM	O=c1[nH]c(CSC2CCOCC2)nc2cc(OCc3ccccc3)ccc12 [Example 96, 7-(Benzyloxy)-2-(((tetrahydro-2H-pyran-4-yl)thio)methyl)quinazolin-4(3H)-one]
1000 to 10000 nM	O=c1[nH]c(CSC2CCC(O)CC2)nc2cc(Nc3ccccc3)ccc12 (stereo not shown) [Example 97, 2-(((4-Hydroxycyclohexyl)thio)methyl)-7-(phenylamino)quinazolin-4(3H)-one]
< 1000 nM	O=c1[nH]c(CS[C@H]2CC[C@H](O)CC2)nc2cc(Nc3cccnc3)ccc12 [Example 101, 2-(((trans-4-Hydroxycyclohexyl)thio)methyl)-7-(pyridin-3-ylamino)quinazolin-4(3H)-one]
1000 to 10000 nM	O=c1[nH]c(CS[C@H]2CC[C@@H](CO)CC2)nc2cc(Nc3cccnc3)ccc12 [Example 106, 2-(((cis-4-(Hydroxymethyl)cyclohexyl)thio)methyl)-7-(pyridin-3-ylamino) quinazolin-4(3H)-one]
1000 to 10000 nM	CN(C)c1ccc2c(=O)[nH]c(CSC3CCOCC3)nc2c1 [Example 109, 7-(Dimethylamino)-2-(((tetrahydro-2H-pyran-4-yl)thio)methyl)quinazolin-4(3H)-one]
1000 to 10000 nM	CNc1ccc2c(=O)[nH]c(CSC3CCOCC3)nc2c1 [Example 110, 7-(Methylamino)-2-(((tetrahydro-2H-pyran-4-yl)thio)methyl)quinazolin-4(3H)-one]
1000 to 10000 nM	O=c1[nH]c(CSC2CCOCC2)nc2cc(N3CCOCC3)ccc12 [Example 111, 7-Morpholino-2-(((tetrahydro-2H-pyran-4-yl)thio)methyl)quinazolin-4(3H)-one]
1000 to 10000 nM	CN1CCN(c2ccc3c(=O)[nH]c(CSC4CCOCC4)nc3c2)CC1 [Example 112, 7-(4-Methylpiperazin-1-yl)-2-(((tetrahydro-2H-pyran-4-yl)thio)methyl)quinazolin-4(3H)-one]
> 10000 nM	CN1CCC(Nc2ccc3c(=O)[nH]c(CSC4CCOCC4)nc3c2)CC1 [Example 113, 7-((1-Methylpiperidin-4-yl)amino)-2-(((tetrahydro-2H-pyran-4-yl)thio)methyl)quinazolin-4(3H)-one]
1000 to 10000 nM	O=c1[nH]c(CSC2CCOCC2)nc2cc(NCc3ccccn3)ccc12 [Example 118, 7-((Pyridin-2-ylmethyl)amino)-2-(((tetrahydro-2H-pyran-4-yl)thio)methyl)quinazolin-4(3H)-one]
< 1000 nM	O=c1[nH]c(CSC2CCOCC2)nc2cc(NCc3ccccc3)ccc12 [Example 119, 7-(Benzylamino)-2-(((tetrahydro-2H-pyran-4-yl)thio)methyl)quinazolin-4(3H)-one]
> 10000 nM	CC(Nc1ccc2c(=O)[nH]c(CSC3CCOCC3)nc2c1)c1ccccc1 (stereo not shown) [Example 120, 7-((1-Phenylethyl)amino)-2-(((tetrahydro-2H-pyran-4-yl)thio)methyl)quinazolin-4(3H)-one]
< 1000 nM	O=c1[nH]c(CSC2CCOCC2)nc2cc(NC3CCOC3)ccc12 (stereo not shown) [Example 121, 2-(((Tetrahydro-2H-pyran-4-yl)thio)methyl)-7-((tetrahydrofuran-3-yl)amino)quinazolin-4(3H)-one]
